Measured values reported in US20230031406A1, “COMPOUNDS AND COMPOSITIONS FOR TREATING CONDITIONS ASSOCIATED WITH NLRP ACTIVITY” (Novartis AG, priority 2018, published 2023).
Where two headings read alike, the source gives them in different places.

System: PMA-differentiated THP-1 cells
Assay: IL-1β production in PMA-differentiated THP-1 cells stimulated with gramicidin (hTHP-1 assay containing 2% fetal bovine serum; Procedures 1 and 2)
Format: cell-based, human
Conditions: 2% fetal bovine serum, class symbols
Method in brief: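 PMA 20 ng/ml 16-18 h → trypsinise → 50,000 cells/well, RPMI/2% FBS; cpd 1 h (11-pt, 100–0.0017 μM; DMSO 0.37%); gramicidin 5 μM, 2 h; spin; supernatant IL-1β via HTRF.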

[1] = Table B2, read-out: hTHP-1 IC50
[2] = Homo sapiens, THP-1, Table B1, read-out: Average IC50 of compounds in hTHP-1 assay: hTHP-1 IC50
[3] = Homo sapiens, THP-1, Table B2, read-out: hTHP-1 IC50
[4] = Table B3, hTHP-1 assay, read-out: IC50
[5] = Table B1, read-out: Average IC50 of compounds in hTHP-1 assay: hTHP-1 IC50
[6] = Homo sapiens, THP-1, Table B4, read-out: hTHP-1 IC50
[7] = Homo sapiens, THP-1, Table B3, hTHP-1 assay, read-out: IC50

Compound: Cc1nc2c(c(NC(=O)N=S(N)(=O)c3cc(C(C)(C)O)cs3)c1C1CC1)CCC2 (single isomer, unassigned) [Compound 623a, (R) or (S)-N′-((3-cyclopropyl-2-methyl-6,7-dihydro-5H-cyclopenta[b]pyridin-4-yl)carbamoyl)-4-(2-hydroxypropan-2-yl)thiophene-2-sulfonimidamide]
- IC50 [1]: 40 to 200 nM

Compound: CC(C)c1cncc(C(C)C)c1NC(=O)N=S(N)(=O)c1cnc(C(C)(C)O)s1 (single isomer, unassigned) [Compound 160b, (S) or (R)-N′-((3,5-diisopropylpyridin-4-yl)carbamoyl)-2-(2-hydroxypropan-2-yl)thiazole-5-sulfonimidamide]
- IC50 [2]: 5000 to 30000 nM

Compound: COC(C)(C)c1nc(CO)c(S(N)(=O)=NC(=O)Nc2c3c(nc4c2CCC4(C)C)CCC3)s1 (single isomer, unassigned) [Compound 648a, (R) or (S)-N′-((3,3-dimethyl-1,2,3,5,6,7-hexahydrodicyclopenta [b,e]pyridin-8-yl)carbamoyl)-4-(hydroxymethyl)-2-(2-methoxypropan-2-yl)thiazole-5-sulfonimidamide]
- IC50 [3]: 200 to 1000 nM

Compound: Cc1nc2c(c(NC(=O)N=S(N)(=O)c3nn(C(F)F)cc3F)c1-c1ccccc1)CCC2 (single isomer, unassigned) [Example 728, (S) or (R)-1-(difluoromethyl)-4-fluoro-N′-((2-methyl-3-phenyl-6,7-dihydro-5H-cyclopenta[b]pyridin-4-yl)carbamoyl)-1H-pyrazole-3-sulfonimidamide]
- IC50 [4]: 1000 to 5000 nM

Compound: CC(C)(O)c1csc(S(N)(=O)=NC(=O)Nc2c3c(nc4c2CCC42CC2)CCC3)c1 (single isomer, unassigned) [Compound 114b, (S) or (R)-4-(2-hydroxy-propan-2-yl)-N′-((1′,5′,6′,7′-tetrahydro-2′H-spiro[cyclopropane-1,3′-dicyclopenta[b,e]pyridin]-8′-yl)carbamoyl)thiophene-2-sulfonimidamide]
- IC50 [5]: 1000 to 5000 nM

Compound: CC(C)(O)c1csc(S(N)(=O)=NC(=O)Nc2c3c(nc(C(F)(F)F)c2C2CC2)CCC3)c1 (single isomer, unassigned) [Example 645, (S) or (R)-N′-((3-cyclopropyl-2-(trifluoromethyl)-6,7-dihydro-5H-cyclopenta[b]pyridin-4-yl)carbamoyl)-4-(2-hydroxypropan-2-yl) thiophene-2-sulfonimidamide]
- IC50 [4]: 5000 to 30000 nM

Compound: CC(C)(O)c1csc(S(N)(=O)=NC(=O)Nc2c3c(nc4c2CCC4(C)C)CCC3)c1 (single isomer, unassigned) [Compound 127b, (R) or (S)-N′-((3,3-dimethyl-1,2,3,5,6,7-hexahydro-dicyclopenta[b,e]pyridin-8-yl)carbamoyl)-4-(2-hydroxypropan-2-yl)thio-phene-2-sulfonimidamide]
- IC50 [5]: 40 to 200 nM

Compound: CC1(C)CCc2c1nc1c(c2NC(=O)N=S(N)(=O)c2cnc(C(O)CO)s2)CCC1 (stereo not shown) [Example 753, 2-(1,2-Dihydroxyethyl)-N′-((3,3-dimethyl-1,2,3,5,6,7-hexahydrodicyclopenta[b,e]pyridin-8-yl)carbamoyl) thiazole-5-sulfonimidamide]
- IC50 [6]: 200 to 1000 nM

Compound: CN(C)Cc1ccc(S(N)(=O)=NC(=O)Nc2c3c(nc4c2CCC4(C)C)CCC3)cc1 (single isomer, unassigned) [Compound 125b, (R) or (S)-N′-((3,3-dimethyl-1,2,3,5,6,7-hexahydro-dicyclopenta[b,e]pyridin-8-yl)carbamoyl)-4-((dimethylamino)meth-yl)benzene-sulfonimidamide]
- IC50 [2]: 1000 to 5000 nM

Compound: CN(C)Cc1ccc(S(N)(=O)=NC(=O)Nc2c3c(nc4c2CCC4)CCC3)cc1 (single isomer, unassigned) [Compound 130b, (R) or (S)-4-((dimethylamino)methyl)-N′-((1,2,3,5,6,7-hexahydro-dicyclopenta[b,e]pyridin-8-yl)carbamoyl)benzene-sulfonamidamide]
- IC50 [2]: 1000 to 5000 nM

Compound: CC1(C)CCc2c1nc1c(c2NC(=O)N=S(N)(=O)c2sc(C(C)(O)CO)cc2F)CCC1 (single isomer, unassigned) [Compound 640a, (R, R) and (S, R) or (R, S) and (S, S)-5-(1,2-Dihydroxypropan-2-yl)-N′-((3,3-dimethyl-1,2,3,5,6,7-hexahydrodicyclopenta [b,e]pyridin-8-yl)carbamoyl)-3-fluorotliophene-2-sulfonimidamide]
- IC50 [1]: 8 to 40 nM

Compound: C[C@@H]1CCc2c1nc1c(c2NC(=O)N=S(N)(=O)c2sc(CN(C)C)cc2F)CCC1 (stereo partly drawn) [Compound 636c, 5-((Dimethylamino)methyl)-3-fluoro-N′-(((R)-3-methyl-1,2,3,5,6,7-hexahydrodicyclopenta[b,e]pyridin-8-yl)carbamoyl)thiophene-2-sulfonimidamide]
- IC50 [3]: 200 to 1000 nM

Compound: Cc1c(C(F)(F)F)nc2c(c1NC(=O)N=S(N)(=O)c1cnn3c1OC[C@H](O)C3)CCC2 (stereo partly drawn) [Example 601, (6R)-6-hydroxy-N′-((3-methyl-2-(trifluoromethyl)-6,7-dihydro-5H-cyclopenta[b]pyridin-4-yl)carbamoyl)-6,7-dihydro-5H-pyrazolo[5,1-b][1,3]oxazine-3-sulfonimidamide]
- IC50 [7]: 5000 to 30000 nM

Compound: CCc1c(C)nc2c(c1NC(=O)N=S(N)(=O)c1cnc(C(C)(C)O)s1)CCC2 (single isomer, unassigned) [Compound 117b, (R) or (S)-N′-((3-ethyl-2-methyl-6,7-dihydro-5H-cyclopenta[b]pyridin-4-yl)carbamoyl)-2-(2-hydroxypropan-2-yl)thiazole-5-sulfonimidamide]
- IC50 [2]: 5000 to 30000 nM

Compound: NS(=O)(=NC(=O)Nc1c2c(nc(C(F)(F)F)c1-c1ccccc1)CCC2)c1nn(C(F)F)cc1F (stereo not shown) [Example 740, 1-(Difluoromethyl)-4-fluoro-N′-((3-phenyl-2-(trifluoromethyl)-6,7-dihydro-5H-cyclopenta[b]pyridin-4-yl)carbamoyl)-1H-pyrazole-3-sulfonimidamide]
- IC50 [6]: 40 to 200 nM

Compound: CCn1cc(Cl)c(S(N)(=O)=NC(=O)Nc2c(C)c(C(F)(F)F)nc3c2CCC3)n1 (single isomer, unassigned) [Compound 729b, (R) or (S)-4-Chloro-1-ethyl-N′-((3-methyl-2-(trifluoromethyl)-6,7-dihydro-5H-cyclopenta[b]pyridin-4-yl)carbamoyl)-1H-pyrazole-3-sulfonimidamide]
- IC50 [1]: 40 to 200 nM

Compound: Cc1c(C2(F)CC2)nc2c(c1NC(=O)N=S(N)(=O)c1cc(C(C)(C)O)cs1)CCC2 (single isomer, unassigned) [Example 683, (R) or (S)-N′-((2-(1-fluorocyclopropyl)-3-methyl-6,7-dihydro-5H-cyclopenta[b]pyridin-4-yl)carbamoyl)-4-(2-hydroxypropan-2-yl)thiophene-2-sulfonimidamide]
- IC50 [7]: 1000 to 5000 nM

Compound: CC1CCc2c1nc1c(c2NC(=O)N=S(N)(=O)c2cnc(C(O)CO)s2)CCC1 (stereo not shown) [Example 752, 2-(1,2-Dihydroxyethyl)-N′-((3-methyl-1,2,3,5,6,7-hexahydrodicyclopenta[b,e]pyridin-8-yl)carbamoyl) thiazole-5-sulfonimidamide]
- IC50 [6]: 1000 to 5000 nM

Compound: Cc1c(C(F)(F)F)nc(C(F)(F)F)c(C)c1NC(=O)N=S(N)(=O)c1cc(C(C)(C)O)cs1 (single isomer, unassigned) [Example 756, (S) or (R)-N′-((3,5-dimethyl-2,6-bis(trifluoromethyl)pyridin-4-yl)carbamoyl)-4-(2-hydroxypropan-2-yl)thiophene-2-sulfonimidamide]
- IC50 (Table B4, read-out: hTHP-1 IC50): 5000 to 30000 nM
